pKi: −log10 of the molar value. Like-named read-outs stand apart in the source and are kept apart here.
What was measured:
sigma 1 receptor = sigma 1 receptor (Homo sapiens, UniProt Q99720); assay: Sigma 1 receptor radioligand competition binding; conditions: for Ki: Table 1, 7-piperazinyl-tetrahydronaphthalene analogs, read-out: Ki (nM) Sig1R
sigma 2 receptor = sigma 2 receptor (Homo sapiens, UniProt Q5BJF2); assay: Sigma 2 receptor radioligand competition binding; conditions: for Ki: Table 1, 7-piperazinyl-tetrahydronaphthalene analogs, read-out: Ki (nM) Sig2R; for Ki ratio Sig1R/Sig2R: Table 1, ratio of Sig1R Ki to Sig2R Ki
H1 = H1 (Homo sapiens, UniProt P35367); assay: Radioligand competition binding, H1; conditions: Table 5; Cheng-Prusoff from best fit IC50
Sequence of H1 (P35367 whole entry): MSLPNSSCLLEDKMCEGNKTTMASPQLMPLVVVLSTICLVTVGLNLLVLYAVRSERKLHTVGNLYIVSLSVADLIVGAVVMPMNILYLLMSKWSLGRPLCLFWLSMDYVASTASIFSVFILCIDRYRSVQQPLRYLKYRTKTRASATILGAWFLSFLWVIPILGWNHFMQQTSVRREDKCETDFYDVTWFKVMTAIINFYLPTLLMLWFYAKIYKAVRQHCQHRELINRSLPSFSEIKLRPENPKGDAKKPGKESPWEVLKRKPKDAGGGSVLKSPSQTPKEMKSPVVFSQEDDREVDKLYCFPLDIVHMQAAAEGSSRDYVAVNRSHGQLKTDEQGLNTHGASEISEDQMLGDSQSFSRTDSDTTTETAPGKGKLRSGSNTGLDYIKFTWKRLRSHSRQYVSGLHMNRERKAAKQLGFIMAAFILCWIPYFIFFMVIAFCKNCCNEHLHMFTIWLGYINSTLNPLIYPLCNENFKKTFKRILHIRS

Sequence of sigma 1 receptor (Q99720 whole entry, species assumed): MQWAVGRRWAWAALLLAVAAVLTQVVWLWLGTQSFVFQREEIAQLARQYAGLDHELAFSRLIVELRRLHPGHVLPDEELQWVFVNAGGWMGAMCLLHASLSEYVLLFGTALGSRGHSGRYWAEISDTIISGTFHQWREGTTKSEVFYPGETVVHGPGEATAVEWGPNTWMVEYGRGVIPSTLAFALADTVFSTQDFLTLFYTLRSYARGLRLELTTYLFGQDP
Sequence of sigma 2 receptor (Q5BJF2 whole entry, species assumed): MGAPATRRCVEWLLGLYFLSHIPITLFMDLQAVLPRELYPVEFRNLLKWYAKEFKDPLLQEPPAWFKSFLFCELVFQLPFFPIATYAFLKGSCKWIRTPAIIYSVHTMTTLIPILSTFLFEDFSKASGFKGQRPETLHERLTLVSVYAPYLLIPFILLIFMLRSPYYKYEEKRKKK

| Structure (SMILES) | pKi (sigma 1 receptor; Table 5, Cheng-Prusoff from best fit IC50, read-out: Ki Sigma 1) | pKi (sigma 2 receptor; Table 5, Cheng-Prusoff from best fit IC50, read-out: Ki Sigma 2) | pKi (H1) | Ki (sigma 1 receptor) [nM] | Ki (sigma 2 receptor) [nM] | Ki ratio Sig1R/Sig2R (sigma 2 receptor) |
| --- | --- | --- | --- | --- | --- | --- |
| CN(Cc1ccccc1)C1CCCc2cc(N3CCOCC3)ccc21 (stereo not drawn) [MDW-1-129, N-Benzyl-N-methyl-6-morpholino-1,2,3,4-tetrahydronaphthalen-1-amine] | 6.65 | 5.93 | 6.93 |  |  |  |
| CN(C(=O)OCc1ccccc1)C1CCCc2ccc(N3CCN(C4CCC4)CC3)cc21 (stereo not drawn) [MDW-1-162, Benzyl (7-(4-cyclobutylpiperazin-1-yl)-1,2,3,4-tetrahydronaphthalen-1-yl)(methyl)carbamate] |  |  |  | 266 | 12 | 22 |
| CN(C(=O)OCc1ccccc1)C1CCCc2ccc(N3CCN(C4CCCCC4)CC3)cc21 (stereo not drawn) [MDW-1-205, Benzyl (7-(4-cyclohexylpiperazin-1-yl)-1,2,3,4-tetrahydronaphthalen-1-yl)(methyl)carbamate] |  |  |  | 16 | 2 | 8 |
| CCOC(=O)CCN1CCN(c2ccc3c(c2)C(NC(=O)OCc2ccccc2)CCC3)CC1 (stereo not drawn) [MDW-1-206, Ethyl 3-(4-(8-(((benzyloxy)carbonyl)amino)-5,6,7,8-tetrahydronaphthalen-2-yl)piperazin-1-yl)propanoate] |  |  |  | 2260 | 80 | 28 |
| CCCN1CCN(c2ccc3c(c2)C(NC(=O)OCc2ccccc2)CCC3)CC1 (stereo not drawn) [MDW-1-202, Benzyl (7-(4-propylpiperazin-1-yl)-1,2,3,4-tetrahydronaphthalen-1-yl)carbamate] |  |  |  | 174 | 56 | 3 |

— patent publication US20210323913A1, “SIGMA RECEPTOR BINDERS” (BOARD OF REGENTS, THE UNIVERSITY OF TEXAS SYSTEM, priority 2016, published 2021)
